The structures appear in SMILES notation.

Results on four compounds are retold here after patent US20250197337A1, “CONVERSION OF TRIACETIC ACID LACTONE TO POTASSIUM SORBATE” (priority 2023, published 2025).

For data set [1] the following is noted: previous study; cited from earlier work.
The subject of a further data set is P. chrysogenum. The following applies: for spores of P. chrysogenum: concentrations greater than 4 mg/ml, after 6 days of incubation. As to the method: (§1) To assess the effectiveness of KS against bacteria and fungi, several tests were conducted in accordance with the Antimicrobial Susceptibility Testing Standards outlined by the Clinical and Laboratory Standards Institute (Malvern, Pennsylvania, USA) (CLSI Mo2-A12, 2015) with some modifications, including the minimal inhibitory concentration (MIC), and an agar diffusion disc test. Potassium sorbate solutions with concentrations ranging from 0.5 to 8.0 mg/ml were combined with bacterial cells (10^5 CFU/mL) and fungal spores (105 conidia/mL) in TSB medium with a pH adjusted to 5.5 for bacteria and in Potato Dextrose Broth (“PDB”) medium (with an original pH of 5.5) for fungi. They were then incubated at 37° C. (for E. coli) for 24 hours and 25° C. (for P. chrysogenum) for 6 days. To determine the minimum inhibitory concentration (“MIC”) of antimicrobial substances, optical density (“OD”) at 600 nm was measured through a Bioscreen C device (Oy Growth Curves Ab Ltd., Turku, Finland) using turbidimetric measurements. The MIC refers to the lowest concentration of antimicrobial that prevents visible growth of microorganisms after incubation. For fungal growth, the MIC was determined based on the inhibition of mycelial growth. The negative control was added the same volume of deionized water without potassium sorbate to observe the growth of bacteria and fungi. Furthermore, to determine assess the survivability of cells and spores when exposed to potassium sorbate for 18 hours, microbial counts were expressed as the logarithm of colony forming units per ml (log CFU/mL). Each measurement was performed in triplicate.

The subject of a further data set is bacteria and fungi. The following applies: against bacteria and fungi. How it is done: as §1
A further data set has as its system Escherichia coli 1-894-1. Nature of the data set: microbe, parasite or virus in culture. As to the method:
Isolated colonies of Escherichia coli 1-894-1 (ATCC, Manassas, Virginia, USA) were picked from the bacterial culture plate and inoculated into 4-5 mL of TSB liquid medium for all bacterial strains. TSB liquid medium was prepared by dissolving a mixture of 17.0 g pancreatic digest of casein, 3.0 g papaic digest of soybean, 2.5 g dextrose, 5.0 g sodium chloride, and 2.5 g dipotassium phosphate in a final volume of 1,000 mL of distilled water, stirring for at least for 20 minutes, and then sterilizing under high pressure ([…] for 20 minutes at 121° C.). To achieve log phase growth, bacterial cultures were incubated at 37° C. for 2-6 hours based on the 0.5 McFarland standard, which corresponds to approximately 1.5×10^8 CFU/mL when the optical density of a bacterial suspension ranged from 0.08 to 0.1. A 1:20 dilution was made by adding 2.0 ml of the original suspension to 38 mL of PBS buffer, and then a 1:10 dilution was prepared by adding 0.01 ml to each well to obtain a final concentration of about 5.0×10^5 CFU/mL.
as §1

For a further data set, the system named is E. coli. Particulars: concentration of >3 mg/ml; 24 hours at 37° C.
In a further data set the test system is Penicillium chrysogenum. Nature of the data set: microbe, parasite or virus in culture. As to the method:
as §1

The conditions of data set [2]: room temperature; cited from earlier work.
For another data set, the system named is Penicillium italicum. The following applies: cited from earlier work.
Data set [3] relates to E. coli O157:H7 (ATCC 35150). Particulars: separate study; cited from earlier work.

Turning to `C/C=C/C=C/C(=O)[O-].[K+]` [trans, trans-potassium sorbate], in [1], the “antimicrobial activity compared with the mixture of isomers” value is reported as “higher antimicrobial activity than the mixture of isomers”.

For the compound `C/C=C/C=C\C(=O)[O-].[K+]` [TAL-derived KS, cis-2, trans-4 potassium sorbate], the “inhibition of P. chrysogenum growth as compared to C-KS” value in the data set with P. chrysogenum (concentration of 6 mg/mL, 6 days of incubation) is “significant inhibition”. The “spores of P. chrysogenum” value with P. chrysogenum is “significantly decreased”. Moreover, the “antimicrobial activity compared with commercial KS” value with bacteria and fungi is listed as “comparable antimicrobial activities”. For the same compound, the “inhibitory effect on the growth of E. coli” value in the data set with Escherichia coli 1-894-1 (concentration of 2 mg/ml) is “mild inhibitory effect”; in the data set with Escherichia coli 1-894-1 (concentration of 4 mg/ml) it was “significant inhibitory effect”. For the same compound, the “inhibitory effects against E. coli (CFU count)” value in the data set with E. coli is on record as “significant inhibitory effects”. In addition, the “antifungal activities compared with commercial KS” value in the data set on Penicillium chrysogenum is “same antifungal activities as commercial KS”. Besides, the “MIC against P. chrysogenum (preventing mycelial growth)” value against Penicillium chrysogenum (PDB medium pH 5.5, 25° C., 6 days) was found to be 6000 µg/mL.

As for `C/C=C/C=C/C(=O)[O-].[K+]` [commercial KS, trans, trans-2,4-hexadienoic acid potassium salt], the “spores of P. chrysogenum” value in the data set on P. chrysogenum was “significantly decreased”. For the same compound, the MIC was 2000 to 4000 µg/mL in the data set with Escherichia coli 1-894-1 (Escherichia coli, 18941, 24 h, pH 5.5, read-out: MIC against E. coli) and 8000 µg/mL in the data set with Penicillium chrysogenum (Penicillium chrysogenum, 144 h, pH 5.5, read-out: MIC against P. chrysogenum (preventing mycelial growth)). The “inhibitory effect on the growth of E. coli” value in the data set on Escherichia coli 1-894-1 (concentration of 2 mg/ml) is “mild inhibitory effect”; in the data set with Escherichia coli 1-894-1 (concentration of 4 mg/ml) it was “significant inhibitory effect”. Also, in the data set with E. coli, the “inhibitory effects against E. coli (CFU count)” value is on record as “significant inhibitory effects”.

As for `C/C=C/C=C/C(=O)[O-].[K+]` [KS, potassium sorbate], the solubility in water in data set [2] is 58.5 g per 100 ml. Moreover, the “MIC against Penicillium italicum” value in the data set with Penicillium italicum was 15000 µg/mL. Moreover, the “MIC against E. coli O157:H7 (ATCC 35150)” value in data set [3] is 1600 µg/mL.
